Source: the NIST ThermoML archive (doi:10.1021/je400332j)
± gives the expanded uncertainty stated by the source.

Key:
[1] = 101.33 kPa, Liquid; for viscosity: Concentric cylinders viscometry; for mass density: Vibrating tube method
[2] = xn = mol fraction of the nth substance listed; settings: 101 kPa, Liquid; for viscosity: Concentric cylinders viscometry; for mass density: Vibrating tube method

CCn1cc[n+](C)c1.F[B-](F)(F)F [1-ethyl-3-methylimidazolium tetrafluoroborate]
viscosity ([1]; 293.15 K): 45.47 ± 3.7 mPa·s
mass density ([1]; 293.15 K): 1283.9 ± 1.1 kg/m3
viscosity ([1]; 298.15 K): 37.46 ± 3 mPa·s
mass density ([1]; 298.15 K): 1280 ± 1.1 kg/m3
viscosity ([1]; 303.15 K): 31.29 ± 2.5 mPa·s
mass density ([1]; 303.15 K): 1276.2 ± 1.1 kg/m3
viscosity ([1]; 308.15 K): 26.45 ± 2.1 mPa·s
mass density ([1]; 308.15 K): 1272.4 ± 1.1 kg/m3
viscosity ([1]; 313.15 K): 22.61 ± 1.8 mPa·s
mass density ([1]; 313.15 K): 1268.6 ± 1.1 kg/m3
viscosity ([1]; 318.15 K): 19.51 ± 1.6 mPa·s
mass density ([1]; 318.15 K): 1264.9 ± 1.1 kg/m3
viscosity ([1]; 323.15 K): 17 ± 1.4 mPa·s
mass density ([1]; 323.15 K): 1261.2 ± 1.1 kg/m3
viscosity ([1]; 328.15 K): 14.92 ± 1.2 mPa·s
mass density ([1]; 328.15 K): 1257.4 ± 1.1 kg/m3
viscosity ([1]; 333.15 K): 13.2 ± 1.1 mPa·s
mass density ([1]; 333.15 K): 1253.8 ± 1.1 kg/m3
viscosity ([1]; 338.15 K): 11.76 ± 0.94 mPa·s
mass density ([1]; 338.15 K): 1250.1 ± 1.1 kg/m3
viscosity ([1]; 343.15 K): 10.54 ± 0.85 mPa·s
mass density ([1]; 343.15 K): 1246.5 ± 1.1 kg/m3

CCn1cc[n+](C)c1.F[B-](F)(F)F [1-ethyl-3-methylimidazolium tetrafluoroborate] + CCCCCCn1cc[n+](C)c1.F[B-](F)(F)F
viscosity ([2]; 293.15 K, x1 = 1): 45.47 ± 3.7 mPa·s
mass density ([2]; 293.15 K, x1 = 1): 1283.9 ± 1.1 kg/m3
viscosity ([2]; 298.15 K, x1 = 1): 37.46 ± 3 mPa·s
mass density ([2]; 298.15 K, x1 = 1): 1280 ± 1.1 kg/m3
viscosity ([2]; 303.15 K, x1 = 1): 31.29 ± 2.5 mPa·s
mass density ([2]; 303.15 K, x1 = 1): 1276.2 ± 1.1 kg/m3
viscosity ([2]; 308.15 K, x1 = 1): 26.45 ± 2.1 mPa·s
mass density ([2]; 308.15 K, x1 = 1): 1272.4 ± 1.1 kg/m3
viscosity ([2]; 313.15 K, x1 = 1): 22.61 ± 1.8 mPa·s
mass density ([2]; 313.15 K, x1 = 1): 1268.6 ± 1.1 kg/m3
viscosity ([2]; 318.15 K, x1 = 1): 19.51 ± 1.6 mPa·s
mass density ([2]; 318.15 K, x1 = 1): 1264.9 ± 1.1 kg/m3
viscosity ([2]; 323.15 K, x1 = 1): 17 ± 1.4 mPa·s
mass density ([2]; 323.15 K, x1 = 1): 1261.2 ± 1.1 kg/m3
viscosity ([2]; 328.15 K, x1 = 1): 14.92 ± 1.2 mPa·s
mass density ([2]; 328.15 K, x1 = 1): 1257.4 ± 1.1 kg/m3
viscosity ([2]; 333.15 K, x1 = 1): 13.2 ± 1.1 mPa·s
mass density ([2]; 333.15 K, x1 = 1): 1253.8 ± 1.1 kg/m3
viscosity ([2]; 338.15 K, x1 = 1): 11.76 ± 0.94 mPa·s
mass density ([2]; 338.15 K, x1 = 1): 1250.1 ± 1.1 kg/m3
viscosity ([2]; 343.15 K, x1 = 1): 10.54 ± 0.85 mPa·s
mass density ([2]; 343.15 K, x1 = 1): 1246.5 ± 1.1 kg/m3

CCn1cc[n+](C)c1.F[B-](F)(F)F [1-ethyl-3-methylimidazolium tetrafluoroborate] + CCCn1cc[n+](C)c1.F[B-](F)(F)F
viscosity ([2]; 293.15 K, x1 = 1): 45.47 ± 3.7 mPa·s
mass density ([2]; 293.15 K, x1 = 1): 1283.9 ± 1.1 kg/m3
viscosity ([2]; 298.15 K, x1 = 1): 37.46 ± 3 mPa·s
mass density ([2]; 298.15 K, x1 = 1): 1280 ± 1.1 kg/m3
viscosity ([2]; 303.15 K, x1 = 1): 31.29 ± 2.5 mPa·s
mass density ([2]; 303.15 K, x1 = 1): 1276.2 ± 1.1 kg/m3
viscosity ([2]; 308.15 K, x1 = 1): 26.45 ± 2.1 mPa·s
mass density ([2]; 308.15 K, x1 = 1): 1272.4 ± 1.1 kg/m3
viscosity ([2]; 313.15 K, x1 = 1): 22.61 ± 1.8 mPa·s
mass density ([2]; 313.15 K, x1 = 1): 1268.6 ± 1.1 kg/m3
viscosity ([2]; 318.15 K, x1 = 1): 19.51 ± 1.6 mPa·s
mass density ([2]; 318.15 K, x1 = 1): 1264.9 ± 1.1 kg/m3
viscosity ([2]; 323.15 K, x1 = 1): 17 ± 1.4 mPa·s
mass density ([2]; 323.15 K, x1 = 1): 1261.2 ± 1.1 kg/m3
viscosity ([2]; 328.15 K, x1 = 1): 14.92 ± 1.2 mPa·s
mass density ([2]; 328.15 K, x1 = 1): 1257.4 ± 1.1 kg/m3
viscosity ([2]; 333.15 K, x1 = 1): 13.2 ± 1.1 mPa·s
mass density ([2]; 333.15 K, x1 = 1): 1253.8 ± 1.1 kg/m3
viscosity ([2]; 338.15 K, x1 = 1): 11.76 ± 0.94 mPa·s
mass density ([2]; 338.15 K, x1 = 1): 1250.1 ± 1.1 kg/m3
viscosity ([2]; 343.15 K, x1 = 1): 10.54 ± 0.85 mPa·s
mass density ([2]; 343.15 K, x1 = 1): 1246.5 ± 1.1 kg/m3

CCCCCCn1cc[n+](C)c1.F[B-](F)(F)F [1-hexyl-3-methylimidazolium tetrafluoroborate]
viscosity ([1]; 293.15 K): 280.4 ± 23 mPa·s
mass density ([1]; 293.15 K): 1147.5 ± 1.1 kg/m3
viscosity ([1]; 298.15 K): 206.3 ± 17 mPa·s
mass density ([1]; 298.15 K): 1144.1 ± 1.1 kg/m3
viscosity ([1]; 303.15 K): 154.9 ± 13 mPa·s
mass density ([1]; 303.15 K): 1140.6 ± 1.1 kg/m3
viscosity ([1]; 308.15 K): 118.7 ± 9.7 mPa·s
mass density ([1]; 308.15 K): 1137.2 ± 1 kg/m3
viscosity ([1]; 313.15 K): 92.56 ± 7.5 mPa·s
mass density ([1]; 313.15 K): 1133.7 ± 1 kg/m3
viscosity ([1]; 318.15 K): 73.37 ± 5.9 mPa·s
mass density ([1]; 318.15 K): 1130.3 ± 1 kg/m3
viscosity ([1]; 323.15 K): 59.03 ± 4.8 mPa·s
mass density ([1]; 323.15 K): 1127 ± 1 kg/m3
viscosity ([1]; 328.15 K): 48.16 ± 3.9 mPa·s
mass density ([1]; 328.15 K): 1123.6 ± 1 kg/m3
viscosity ([1]; 333.15 K): 39.71 ± 3.2 mPa·s
mass density ([1]; 333.15 K): 1120.2 ± 1 kg/m3
viscosity ([1]; 338.15 K): 33.21 ± 2.7 mPa·s
mass density ([1]; 338.15 K): 1116.8 ± 1 kg/m3
viscosity ([1]; 343.15 K): 28.03 ± 2.3 mPa·s
mass density ([1]; 343.15 K): 1113.4 ± 1 kg/m3

CCCCCCn1cc[n+](C)c1.F[B-](F)(F)F [1-hexyl-3-methylimidazolium tetrafluoroborate] + CCCn1cc[n+](C)c1.F[B-](F)(F)F
viscosity ([2]; 293.15 K, x2 = 0): 280.4 ± 23 mPa·s
mass density ([2]; 293.15 K, x2 = 0): 1147.5 ± 1.1 kg/m3
viscosity ([2]; 298.15 K, x2 = 0): 206.3 ± 17 mPa·s
mass density ([2]; 298.15 K, x2 = 0): 1144.1 ± 1.1 kg/m3
viscosity ([2]; 303.15 K, x2 = 0): 154.9 ± 13 mPa·s
mass density ([2]; 303.15 K, x2 = 0): 1140.6 ± 1 kg/m3
viscosity ([2]; 308.15 K, x2 = 0): 118.7 ± 9.7 mPa·s
mass density ([2]; 308.15 K, x2 = 0): 1137.2 ± 1 kg/m3
viscosity ([2]; 313.15 K, x2 = 0): 92.56 ± 7.5 mPa·s
mass density ([2]; 313.15 K, x2 = 0): 1133.7 ± 1 kg/m3
viscosity ([2]; 318.15 K, x2 = 0): 73.37 ± 5.9 mPa·s
mass density ([2]; 318.15 K, x2 = 0): 1130.3 ± 1 kg/m3
viscosity ([2]; 323.15 K, x2 = 0): 59.03 ± 4.8 mPa·s
mass density ([2]; 323.15 K, x2 = 0): 1127 ± 1 kg/m3
viscosity ([2]; 328.15 K, x2 = 0): 48.16 ± 3.9 mPa·s
mass density ([2]; 328.15 K, x2 = 0): 1123.6 ± 1 kg/m3
viscosity ([2]; 333.15 K, x2 = 0): 39.71 ± 3.2 mPa·s
mass density ([2]; 333.15 K, x2 = 0): 1120.2 ± 1 kg/m3
viscosity ([2]; 338.15 K, x2 = 0): 33.21 ± 2.7 mPa·s
mass density ([2]; 338.15 K, x2 = 0): 1116.8 ± 1 kg/m3
viscosity ([2]; 343.15 K, x2 = 0): 28.03 ± 2.3 mPa·s
mass density ([2]; 343.15 K, x2 = 0): 1113.4 ± 1 kg/m3

CCCn1cc[n+](C)c1.F[B-](F)(F)F [1-propyl-3-methylimidazolium tetrafluoroborate]
viscosity ([1]; 293.15 K): 95.44 ± 7.7 mPa·s
mass density ([1]; 293.15 K): 1239.3 ± 1.1 kg/m3
viscosity ([1]; 298.15 K): 74.04 ± 6 mPa·s
mass density ([1]; 298.15 K): 1235.7 ± 1.1 kg/m3
viscosity ([1]; 303.15 K): 58.59 ± 4.7 mPa·s
mass density ([1]; 303.15 K): 1232 ± 1.1 kg/m3
viscosity ([1]; 308.15 K): 47.16 ± 3.8 mPa·s
mass density ([1]; 308.15 K): 1228.3 ± 1.1 kg/m3
viscosity ([1]; 313.15 K): 38.56 ± 3.1 mPa·s
mass density ([1]; 313.15 K): 1224.7 ± 1.1 kg/m3
viscosity ([1]; 318.15 K): 31.98 ± 2.6 mPa·s
mass density ([1]; 318.15 K): 1221 ± 1.1 kg/m3
viscosity ([1]; 323.15 K): 26.83 ± 2.2 mPa·s
mass density ([1]; 323.15 K): 1217.4 ± 1.1 kg/m3
viscosity ([1]; 328.15 K): 22.77 ± 1.8 mPa·s
mass density ([1]; 328.15 K): 1213.8 ± 1.1 kg/m3
viscosity ([1]; 333.15 K): 19.54 ± 1.6 mPa·s
mass density ([1]; 333.15 K): 1210.2 ± 1.1 kg/m3
viscosity ([1]; 338.15 K): 16.92 ± 1.4 mPa·s
mass density ([1]; 338.15 K): 1206.6 ± 1.1 kg/m3
viscosity ([1]; 343.15 K): 14.77 ± 1.2 mPa·s
mass density ([1]; 343.15 K): 1203 ± 1.1 kg/m3
